The record followed here is patent US12564568B2, “PKC pathway in Parkinson's Disease” (CEDARS-SINAI MEDICAL CENTER, priority 2018, dated 2026).

In test [1] the test system is α-synuclein. Kind of test: α-synuclein protein level in day 30 iPSC-derived mDA (DaN) cultures after drug treatment (western blot, immunostaining). Format: cell-based, human. The settings on record: for synuclein level: D30 mDA neurons (FIG. 37); for α-synuclein level: phorbol ester PKC agonists, PMA 10 μM, PRO 5 μM, day 27-30; for α-synuclein levels (western blot): EOSPD/PD cultures (190iPD); for α-synuclein levels (western blot) / amount of α-synuclein protein (western blot): treated 3 days from day 27, PEP005 1 μM, SMER-28 5 μM, Trehalose; for amount of α-synuclein protein (western blot): control line cultures (02iCTR). On the procedure:
(§1) iPSC maintenance, mDA neuron differentiation and drug treatments: iPSCs were maintained in E8 media on Matrigel and passaged every 5 days at split ratios from 1:6 to 1:12 as needed using Versene. Only iPSCs between passage 17 and passage 35 were used in this study. For differentiation, iPSCs were grown to ˜80% confluency. Cells were singularized with Accutase (Millipore/Sigma #SCR005) (5 minutes at 37° C.) and plated onto Matrigel-coated 6-well plates (BD Biosciences) at 200K cells per cm^2 (for a fully confluent monolayer) in E8 media with 5 μM Y27632 (StemGent). 24 hours after plating, media was changed to Stage 1 (50% DMEM/F12, 50% Neurobasal, N2, B27-Vitamin A, LDN-193189 (LDN), SB431542 (SB)). Stage 1 media was changed each day (3 mL per well) for 3 days. Media was next switched to Stage 2 (50% DMEM/F12, 50% Neurobasal, N2, B27-Vitamin A, LDN, SB, Purmorphamine (PMN), CHIR99021 (CHIR), Sonic hedgehog (SHH), Fibroblast Growth Factor 8 (FGF8)). Stage 2 media was changed each day (3 mL per well) for 4 days. Media was then switched to Stage 3 (50% DMEM/F12, 50% Neurobasal, N2, B27-Vitamin A, LDN, CHIR, all-trans-Retinoic acid (ATRA)). Stage 3 media was changed each day (3 mL per well) for 4 days. Finally, media was switched to Stage 4 (50% DMEM/F12, 50% Neurobasal, N2, B27+Vitamin A, Brain-Derived Neurotrophic Factor (BDNF), Glial Cell Line-Derived Neurotrophic Factor (GDNF), dibutyryl cyclic-AMP sodium salt (dbCAMP), L-Ascorbic Acid (AA), γ-Secretase inhibitor (DAPT), CHIR, Transforming Growth Factor beta-3 (TGF β3)). Stage 4 media was changed each day (3 mL per well) for 3 days. On day 15, cells were dissociated to single cells using Accutase (20 mins at 37° C.) and gently lifted. Dissociated cells were resuspended in Maturation Medium (50% DMEM/F12, 50% Neurobasal, N2, B27+Vitamin A, BDNF, GDNF, dbCAMP, AA, DAPT, TGF3) plus 5 μM Y27632 and reseeded onto Matrigel-coated 6-well plates at 200 k/cm^2 in 1 mL total volume or onto Matrigel-coated L-glass coverslips in a 24-well plate at 200 k/50 μL drop. Cells were allowed to attach for 45 mins at 37° C. and Maturation Medium was then added to final volumes of 3 mL per well for 6-well plates or 1.5 mL per well for 24-well plates with coverslips. A full medium change was performed 48-hours post-seeding and medium was changed every 3 days until day 30. For drug treatments, cells at day-27 were fed with Maturation Medium containing the indicated drug and cells were analyzed at day 30.
Immunocytochemistry and imaging: mDA neuron cultures were plated on L-glass coverslips and grown as above. Day 30 neurons were fixed in 4% PFA at room temperature for 10-15 mins. Fixed coverslips were washed in PBS and permeabilized for 10 minutes at room temperature in 1% Triton X-100 in PBS, followed by staining in primary antibody solution (5% normal donkey serum, 0.125% Triton-X, PBS) overnight at 4° C. with the following antibodies: TH (1:5000, Immunostar #22941) and α-synuclein (1:500, Abcam #ab138501). Samples were washed 3 times in PBS and stained with species-specific Alexa Fluor 488 or 594-conjugated secondary antibodies (1:500, Invitrogen) for 2 hours at room temperature, followed by DAPI counterstain. Confocal Z-stack images were acquired using a A1 microscope (Nikon) with 40× and 20× objectives and rendered using maximum intensity projection through IMARIS software (Bitplane).
Western blot: Cells were gently scraped off the plates, washed with PBS, centrifuged at 15000 RPM for 1 min, and dry pellets were frozen at −80° C. Samples were then thawed and lysed using 1×NETN buffer (20 mM Tris-HCl (pH 8.0), 100 mM NaCl, 0.5 mM EDTA and 0.5% NP-40) supplemented with phosphatase/protease inhibitor cocktail (MS-SAFE, Sigma-Aldrich). Lysates were sonicated in an automated cold bath sonicator for 20 mins using alternating 10 sec pulses followed by 10 sec rests. Samples were centrifuged for 20 min at 4° C. at 15000 RPM. Total soluble protein concentrations were measured using a Bradford assay (BIO-RAD). […]

In test [2] the test system is p-PKCα. The settings on record: for phospho PKCα level: D30 mDA neurons (FIG. 37).
Test [3] deals with P53. Kind of test: P53 level in mDA cultures under proteasome inhibitor, 24 hrs (western blot). It counts as cell-based, human. The settings on record: mDA/DaN cultures, 24 hrs treatment. On the procedure: Protein degradation can be largely divided into protosomal and autophagy/lysosomal degradation pathways.
Western blot: Cells were gently scraped off the plates, washed with PBS, centrifuged at 15000 RPM for 1 min, and dry pellets were frozen at −80° C. Samples were then thawed and lysed using 1×NETN buffer (20 mM Tris-HCl (pH 8.0), 100 mM NaCl, 0.5 mM EDTA and 0.5% NP-40) supplemented with phosphatase/protease inhibitor cocktail (MS-SAFE, Sigma-Aldrich). Lysates were sonicated in an automated cold bath sonicator for 20 mins using alternating 10 sec pulses followed by 10 sec rests. Samples were centrifuged for 20 min at 4° C. at 15000 RPM. Total soluble protein concentrations were measured using a Bradford assay (BIO-RAD). […] Combined α-synuclein and p-PKCα expression plots were calculated by first normalizing bands to β-actin, then to the 02iCTR signal present in each blot. […] ROC plot and area under the curve was determined using R package ROCR to determine predicative probability percentages.
To test overall degradation rates, global […] function was inhibited in culture for 48 hours via cycloheximide treatment and protein was assessed and quantified over time. […] A significant reduction in the amount of LAMP1 was detected in all 3 EOSPD lines, which was consistent with the proteomics analysis. […]
(In general: A western blot detects proteins with antibodies after separation by electrophoresis.)

Test [4] relates to α-synuclein. Kind of test: α-synuclein protein level in day 30 iPSC-derived mDA (DaN) cultures after drug treatment (western blot, immunostaining). It counts as cell-based, human. The settings on record: control and EOSPD cultures, 24 hrs treatment.
Test [5] relates to tyrosine hydroxylase (TH). Format: cell-based, human. The note with it: mDA cultures, phorbol ester PKC agonists; PMA 10 μM, PRO 5 μM, day 27-30. The procedure: as §1
Analytical flow cytometry: Day-30 cultures in 6-well plates were washed once in phosphate buffered saline (PBS) then 1 mL Accutase was added to each well and incubated for 25 mins at 37° C. or until the cells fully lifted. Cells were washed with an additional 2 mL Maturation Medium and very gently triturated until large clumps were no longer visible at which point cells were pelleted by centrifugation (1500 RPM for 3 mins). Cells were gently resuspended in 4% paraformaldehyde (PFA) in PBS and allowed to fix for 10-15 mins at room temperature. Fixed single cells were permeabilized using 1% Trition X-100 (Sigma-Aldrich) and stained using primary antibodies against TH (1:500 Immunostar, 22941), α-synuclein (1:1000 Abcam, ab138501), and MAP2ab (1:1000 Sigma-Aldrich, M1406), or isotype controls at same dilution (Cell Signaling IgG Isotype Control rabbit #3900S and mouse #5415S). Secondary antibodies (Alexa Fluor 488 and 594 donkey anti-mouse and donkey anti-rabbit, Invitrogen) were used at 1:500. Stained samples were quantified on an LSR Fortessa cytometer using BD FACSDiva software.
Immunocytochemistry and imaging: mDA neuron cultures were plated on L-glass coverslips and grown as above. Day 30 neurons were fixed in 4% PFA at room temperature for 10-15 mins. […]

“Also recorded” adds a separate entry of the source. Like-named read-outs stand apart in the source and are kept apart here. Where a SMILES comes first, the peptide text is derived from it. The star is where a group is joined. Cbz = O=C(OCc1ccccc1)*

With `CCC/C=C/C=C/C(=O)O[C@H]1/C(=C/C(=O)OC)C[C@H]2C[C@H]([C@@H](C)O)OC(=O)C[C@H](O)C[C@@H]3C[C@H](OC(C)=O)C(C)(C)[C@](O)(C[C@@H]4C/C(=C/C(=O)OC)C[C@H](/C=C/C(C)(C)[C@]1(O)O2)O4)O3` [Bryostatin 1], the synuclein level result in test [1] is “unclear effects”; in test [1] (listed as Bryostratin), “did not seem to affect”. Besides, the results for the “phospho PKCα level” value in test [2] and in test [2] (listed as Bryostratin) were “reduction” and “did not seem to affect”, respectively.
Turning to `CC(C)C[C@@H](C=O)NC(=O)[C@H](CC(C)C)NC(=O)[C@H](CC(C)C)NC(=O)OCc1ccccc1` [MG132] (Cbz-Leu-Leu-Leu-aldehyde), the P53 level result in test [3] is recorded as “accumulation”. For the same compound, the “α-synuclein levels under proteasome inhibition” value in test [4] was “no significant increase; also recorded: no substantial change”.
For the compound `CCCCCCCCCCCCCC(=O)O[C@@H]1[C@@H](C)[C@@]2(O)[C@@H](C=C(CO)C[C@]3(O)C(=O)C(C)=C[C@@H]23)[C@@H]2C(C)(C)[C@]12OC(C)=O` [PMA, Phorbol 12-myristate 13-acetate], the α-synuclein level entry in test [1] (mDA cultures) is listed as “reduction”. For the same compound, in test [5], the TH level entry was “increases”. In addition, the p-PKCα level entry in test [2] (mDA cultures, phorbol ester PKC agonists, PMA 10 μM, PRO 5 μM, day 27-30) is “reduction”.
As to `CC(=O)O[C@@]12C[C@@H](C)[C@@]3(O)[C@@H](C=C(CO)C[C@]4(O)C(=O)C(C)=C[C@@H]34)[C@@H]1C2(C)C` [PRO, Prostratin], the “α-synuclein expression, dose response” value in test [1] (dose response study, mDA cultures) is on record as “decreased”. The α-synuclein level result in test [1] (mDA cultures) was “reduction”. In addition, the TH level result in test [5] is “increases”.
For `C=CCNc1ncnc2ccc(Br)cc12` [SMER28], in test [1], the “α-synuclein levels (western blot)” value is given as “not” and the “amount of α-synuclein protein (western blot)” value is “significantly reduced”. For the same compound, the “amount of α-synuclein protein (western blot)” value in test [1] (listed as SMER-28) is recorded as “reduction”.
As to `OC[C@H]1O[C@H](O[C@H]2O[C@H](CO)[C@@H](O)[C@H](O)[C@H]2O)[C@H](O)[C@@H](O)[C@@H]1O` [Trehalose], the “α-synuclein levels (western blot)” value in test [1] is reported as “reduced; also recorded: reduction”.
